Square brackets hold non-standard residues; d marks the D form. Ends that are not written are not given here.
Key:
Arabidopsis leaf = experiment: Translocation of sprayed TAMRA-CPPs into Arabidopsis leaf cells (CLSM fluorescence); type: in vivo, Arabidopsis thaliana; settings: for cell penetrating efficiency: epidermal cells, TAMRA-labelled CPP 1 mg/L in water, compared with KH9 and R9
Text: Cell-penetrating peptides (CPPs), also called protein transduction domains, are short peptides that facilitate the transport of cargo molecules through membranes to gain access to the cells. In many cases, CPPs are coupled to cargo molecules through covalent conjugation, forming CPP-cargo complexes. To date, DNA, RNA, nanomaterials and proteins such as antibodies were reported as cargo molecules. Most studies of the complex of CPPs and protein have contributed to the applications in mammalian cells, whereas only very limited studies have focused on plant cells. […] The plant cells are mainly containing cellulose, hemicellulose and pectin. […] BP100 (KKLFKKILKYL—SEQ ID NO: 7) is an amphiphilic peptide and has CPP function. KH9 (KHKHKHKHKHKHKHKHKH—SEQ ID NO: 10), R9 (RRRRRRRRR SEQ ID NO: 8), and D-R9 (rrrrrrrrr, D-form of R9 - SEQ ID NO: 9) are peptides containing both CPP and cationic biomolecule binding functions. BP100(KH)9 ([…]—SEQ ID NO: 11) and BP100CH7 ([…]—SEQ ID NO: 12) are fusion peptides containing CPP and cationic sequences which are designed as stimulus-response peptides and could release the cargo molecules (peptides, protein, RNA, DNA) into the cytoplasm. KAibA(KH)9, K-alpha-aminoisobutyric acid (AibA)-AKHKHKHKHKHKHKHKHKH, and KAibA(D-R9), K-alpha-aminoisobutyric acid (AibA)-Arrrrrrrrr are synthetic peptides and containing both CPP and cationic biomolecule binding functions. KAibA (U.S. Ser. No. 16/832,749) was chemoenzymatically synthesized using the polymerization reaction (ACS Biomater. Sci. Eng. 2020, 6, 6, 3287-3298). TAMRA-CPPs are CPPs that labeled by fluorescent molecule 5-carboxytetramethylrhodamine (TAMRA) at the C-terminal end and were used for optimization of various conditions. For the labelling of CPP with TAMRA, the amino acids in Boc-CPPs were deprotected using tri-fluoroacetic acid (TFA). A solution of tetramethylrhodamine-5-isothiocyanate in dimethyl sulfoxide (DMSO) was added to CPP solutions and kept stirring at 25° C. for 14 h. The solution was centrifuged at maximum speed at 4° C. for 60 minutes and the precipitate was washed with Milli-Q water. After lyophilizing, a pink solid was obtained. Dried precipitate of TAM RA-CPP was re-suspended with Milli-q and the TAMRA-CPP solution was kept at 1.0 mg/mL concentration in −80° C. Plasmid DNA that contains expression cassette of reporter gene such as GUS (SEQ ID NO: 1), GFP (SEQ ID NO: 2), DsRed (SEQ ID NO: 3), and Renilla luciferase (Rluc—SEQ ID NO: 4) was used to detect successful delivery into plant cells. […]
Each TAMRA-CPP was adjusted as concentration at 1 mg/L in water. […] Leaf surface was washed three times with water after 30, 90 and 150 min post spraying, and the intensity of fluorescence was measured by CLSM imaging analysis (FIG. 2A). […]

soybean leaves = experiment: Translocation of sprayed TAMRA-CPPs into soybean leaves (fluorescence imaging); type: in vivo, Glycine max; settings: for cell penetrating efficiency: soybean leaves, in general
Protocol: Seeds of soybean (Glycine max) cultivars Enrei, William-82, and Peking, were germinated between germination papers that has been moistened with tap water. Then the seeds with papers were placed in a plastic bag and incubated in a growth chamber under 18 hours light/6 hours dark at 26° C. for three days. One and a quarter tea spoon of Multicoat 4 was mixed with 2 L of autoclaved sand, which was then moistened with tap water. Three days old soybean seedlings were then transplanted into containers filled with moist sand mix and incubated in the same growth chamber. Leaves from 5 weeks old plants were used for experiments.
Soybean leaves are different in both architecture and leaf chemical components. We further examined the translocation efficiency of highly efficient native CPP sequences in soybean leaves. Leaves from 5 weeks old plants were used for the experiment. Solutions containing 1.0 mg/mL of natural TAMRA-CPP; TAMRA-BP100, TAMRA-KH9, TAMRA-R9, and TAMRA-D-R9 were sprayed on soybean leaves of 3 different cultivars (Enrei, Peking, and William-82) and incubated for 30 min, 90 min, and 150 min (FIG. 3A). The fluorescence imaging and image analysis were conducted to determine the translocation efficiency of these CPPs to plant leaves. […] Different soybean cultivars responded differently to the translocation of CPPs to plant cells.
We tried to determine the efficiency of artificial CPPs containing Aib to soybean leaves using spraying. KAibA, KAibK, and KAibG were synthesized and labelled with TAMRA as described in Example 1. The solutions containing 1 mg/mL of these artificial TAMRA-CPPs were sprayed to fully expanded leaves of 5-weeks old soybean cultivar Enrei and the fluorescence imaging was carried out at 30 min, 90 min, and 150 min after spraying. […] However, the average fluorescent intensity in TAMRA-KAibA-treated soybean leaves was lower than that previously achieved by TAMRA-D-R9 (FIG. 3B and C).

Substance | cell penetrating efficiency (Arabidopsis leaf) | cell penetrating efficiency (soybean leaves) | depth of penetration and persistence in tissue (Arabidopsis leaf; Arabidopsis leaf, summary) | penetrating efficiency (Arabidopsis leaf; mesophyll cells) | cell penetrating effect (soybean leaves; cultivar Peking)
KKLFKKILKYL (BP100) | higher cell penetrating efficiency | higher cell penetrating efficiency | – | – | –
rrrrrrrrr ([dR][dR][dR][dR][dR][dR][dR][dR][dR]) [D-R9] | higher cell penetrating efficiency | higher cell penetrating efficiency | able to penetrate deep inside of the tissue and stay longer without degradation | highest penetrating efficiency | most efficient cell penetrating effect

Reference: patent publication US20230323373A1, “SPRAYABLE CELL-PENETRATING PEPTIDES FOR SUBSTANCE DELIVERY IN PLANTS” (BASF Plant Science Company GmbH, priority 2020, published 2023)
